The results in this text go back to DBAASP.

≈ marks a conversion by molar mass, not a printed value. Where “and” joins values, the source holds several entries; their conditions need not be identical. Equal entries are not always repeated.

Among the test systems are Pseudomonas syringae; Klebsiella pneumoniae M6; Acinetobacter baumannii; Escherichia coli BL21; Escherichia coli LEC 001; Staphylococcus aureus 15; Escherichia coli 319238.
What all share (assay): ≥ marks a high value that may be exact or a test limit, other limits are often not marked, values filed in µg/mL are converted to µM
The subject of assay [1] is Staphylococcus aureus CGMCC 1.8721.
Assay [2] concerns Staphylococcus epidermidis CGMCC 1.4260.
For assay [3], the system named is Pseudomonas aeruginosa CGMCC 1.2421.
For assay [4], the system named is Escherichia coli CGMCC 1.8732.
The subject of assay [5] is Bacillus subtilis CGMCC 1.3376.
Assay [6] relates to Klebsiella pneumoniae CGMCC 1.1736.
In assay [7] the test system is Pseudomonas aeruginosa BH03.
Assay [8] deals with Pseudomonas aeruginosa PAO1.
The subject of assay [9] is Pseudomonas aeruginosa BH01.
For assay [10], the system named is Pseudomonas aeruginosa BH02.
Assay [11] concerns Pseudomonas aeruginosa BH04.
In assay [12] the test system is Streptococcus pyogenes GAS M1T1.
Assay [13] relates to Staphylococcus aureus NCTC 9144.
Assay [14] has as its system Acinetobacter baumannii ATCC 17987.
Assay [15] relates to Acinetobacter baylyi ADP1.
Assay [16] relates to Acinetobacter baumannii NCTC 13302.
Assay [17] concerns Enterococcus faecalis NCTC 775.
Assay [18] deals with Acinetobacter baumannii AYE.
Assay [19] relates to Pseudomonas syringae pv. tomato.
In assay [20] the test system is Klebsiella pneumoniae NCTC 13368.
Assay [21] deals with Escherichia coli CFI_160_KPC2.
Assay [22] has as its system Escherichia coli NCTC 12923.
The subject of assay [23] is Escherichia coli CFI_161_NDM.
In assay [24] the test system is Acinetobacter baumannii NCTC 13424.
Assay [25] concerns Pseudomonas aeruginosa NCTC 13437.
Assay [26] concerns Enterococcus faecalis NCTC 12204.
The subject of assay [27] is Enterococcus faecalis NCTC 12201.
Assay [28] deals with Xanthomonas axonopodis pv. phaseoli ATCC 9563.
In assay [29] the test system is Xanthomonas axonopodis pv. phaseoli.

Regarding `CC[C@H](C)[C@H](NC(=O)[C@H](CO)NC(=O)CNC(=O)[C@@H](NC(=O)[C@@H](N)CCCN=C(N)N)[C@@H](C)CC)C(=O)N[C@@H](CC(C)C)C(=O)NCC(=O)N[C@@H](CCCN=C(N)N)C(=O)N[C@@H](CC(C)C)C(=O)N[C@@H](C)C(=O)N[C@@H](CCCCN)C(=O)NCC(=O)N[C@@H](CC(C)C)C(=O)N1CCC[C@H]1C(=O)N[C@H](C(=O)N[C@@H](CC(C)C)C(=O)N[C@@H](CCCN=C(N)N)C(=O)N[C@@H](CO)C(=O)N[C@@H](Cc1c[nH]c2ccccc12)C(=O)N[C@H](C(=O)N[C@@H](CCCCN)C(=O)N[C@@H](CC(N)=O)C(=O)N[C@@H](CCCN=C(N)N)C(N)=O)[C@@H](C)CC)[C@@H](C)O` [RIGSILGRLAKGLPTLRSWIKNR], the MIC in [1] was at least 100 µM; in [2], 3.13 µM (≈ 8.15 µg/mL); in assay [3], 12.5 µM (≈ 32.6 µg/mL); in assay [4], 12.5 µM (≈ 32.6 µg/mL); in assay [5] it was 12.5 µM (≈ 32.6 µg/mL); in assay [6], 12.5 µM (≈ 32.6 µg/mL).

For `CC(=O)N[C@@H](CCC(=O)O)C(=O)N[C@@H](CCC(=O)O)C(=O)N[C@@H](CCC(=O)O)C(=O)N[C@@H](CCC(=O)O)C(=O)N[C@@H](C)C(=O)N[C@@H](C)C(=O)N[C@@H](C)C(=O)NCC(=O)N[C@@H](Cc1c[nH]c2ccccc12)C(=O)NCC(=O)N[C@@H](CC(C)C)C(=O)N[C@@H](CCCN=C(N)N)C(=O)N[C@@H](CCCN=C(N)N)C(=O)N[C@@H](CC(C)C)C(=O)N[C@@H](CC(C)C)C(=O)N[C@@H](CCCCN)C(=O)N[C@@H](Cc1ccc(O)cc1)C(=O)NCC(=O)N[C@@H](CCCCN)C(=O)N[C@@H](CCCN=C(N)N)C(=O)N[C@@H](CO)C(N)=O` [EEEEAAAGWGLRRLLKYGKRS], the MIC in assay [7], in assay [8], in assay [9], in assay [10] and in assay [11] was 26.4 µM (≈ 65.1 µg/mL) throughout.

Turning to `CC[C@H](C)[C@H](NC(=O)[C@H](CCCCN)NC(=O)[C@H](CCC(=O)O)NC(=O)[C@H](CCCCN)NC(=O)[C@H](Cc1c[nH]c2ccccc12)NC(=O)[C@H](C)N)C(=O)N[C@@H](CCCN=C(N)N)C(=O)N[C@@H](CCCCN)C(=O)N[C@@H](CCCCN)C(=O)N[C@@H](CC(C)C)C(=O)N[C@@H](CCCCN)C(=O)N[C@@H](CC(N)=O)C(=O)N[C@@H](CCC(=O)O)C(=O)N[C@H](C(=O)N[C@@H](CCCCN)C(=O)N[C@@H](CCCCN)C(=O)N[C@@H](CCCCN)C(=O)N[C@@H](Cc1c[nH]c2ccccc12)C(=O)N[C@@H](CCCN=C(N)N)C(=O)N[C@@H](CCCCN)C(=O)N[C@@H](C)C(=O)N[C@H](C(=O)N[C@H](C(=O)N[C@@H](C)C(=O)N[C@@H](Cc1c[nH]c2ccccc12)C(=O)O)[C@@H](C)CC)C(C)C)[C@@H](C)CC` [AWKEKIRKKLKNEIKKKWRKAVIAW], the MIC is 8 µM (≈ 25.4 µg/mL) in assay [12]; 8 µM and 5.03 µM in assay [8]; 2.52 µM (≈ 8 µg/mL) in assay [13]; 0.315 µM (≈ 1 µg/mL) in assay [14]; 8 µM (≈ 25.4 µg/mL) against Pseudomonas syringae; 0.629 µM (≈ 2 µg/mL) in [15]. Besides, the MIC in assay [16] was 0.315 µM (≈ 1 µg/mL); in assay [17] it was at least 40.3 µM; in assay [18], 0.315 µM (≈ 1 µg/mL); in [19], 0.0786 µM (≈ 0.25 µg/mL); against Klebsiella pneumoniae M6, 2.52 µM (≈ 8 µg/mL); in [20] it was 5.03 µM (≈ 16 µg/mL). Further, the MIC in the assay on Acinetobacter baumannii turned out to be 0.315 µM (≈ 1 µg/mL); against Escherichia coli BL21, 2 µM (≈ 6.36 µg/mL); against Escherichia coli LEC 001, 2.52 µM (≈ 8 µg/mL); in assay [21], 0.629 µM (≈ 2 µg/mL); in [22] it was 0.157 µM (≈ 0.5 µg/mL); in [23], 0.315 µM (≈ 1 µg/mL). The MIC is 0.629 µM (≈ 2 µg/mL) in assay [24]; at least 40.3 µM in assay [25]; 5.03 µM (≈ 16 µg/mL) in assay [26]; at least 40.3 µM against Staphylococcus aureus 15; at least 40.3 µM in assay [27]; 0.25 µM (≈ 0.795 µg/mL) in [28]. Also, the MIC with Escherichia coli 319238 was 1.26 µM (≈ 4 µg/mL); in assay [29], 0.0786 µM (≈ 0.25 µg/mL).

Broadly, the MIC is the lowest concentration that inhibits growth of the organism. Read a high MIC as weaker potency.
